Measurements from PubChem BioAssay (NCI).
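1) Cells in 96-well plates. 2) Compound, 48 h, 5 concentrations. 3) Linear interpolation between surrounding doses. 4) Unreached endpoint = highest concentration. TGI marks complete inhibition of growth.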

Legend:
Assay in all cases: growth of human tumour cells (NCI), 48 h
UACC-62 melanoma = system: UACC-62 melanoma
SN12C renal = system: SN12C renal
OVCAR-3 ovarian = system: OVCAR-3 ovarian
SK-MEL-5 melanoma = system: SK-MEL-5 melanoma
NCI-H226 lung = system: NCI-H226 lung
SF-295 CNS = system: SF-295 CNS
OVCAR-4 ovarian = system: OVCAR-4 ovarian
HOP-92 NSCLC = system: HOP-92 NSCLC
SR leukemia = system: SR leukemia
DU-145 prostate = system: DU-145 prostate

Row | SMILES | TGI (UACC-62 melanoma) [µM] | TGI (SN12C renal) [µM] | TGI (OVCAR-3 ovarian) [µM] | TGI (SK-MEL-5 melanoma) [µM] | TGI (NCI-H226 lung) [µM] | TGI (SF-295 CNS) [µM] | TGI (OVCAR-4 ovarian) [µM] | TGI (HOP-92 NSCLC) [µM] | TGI (SR leukemia) [µM] | TGI (DU-145 prostate) [µM]
1 | Cc1c(C(=O)OCc2ccccc2)[n+](=O)c2cc(Cl)c(Cl)cc2n1[O-] | 31 | 45.3 | 25 | 28.2 | 20.1 | 37.4 | 26.9 | 20 | 21.4 | 27.6
2 | CC(C)/C(Cl)=N\OC(NC(=O)P(=O)(c1ccccc1)c1ccccc1)(C(F)(F)F)C(F)(F)F | 49 | 26.6 | 18.4 | 26.7 | 38.4 | 79.5 | 25.1 | 12.8 | 59 | 72
3 | CN(C)CCCNc1ccc2nnn3c4ccc(O)cc4c(=O)c1c23 | 23.7 | 18.8 | 23 | 19.7 | 17.3 | 18.7 | 18.5 | 20.7 | 3.61 | 18.6
4 | COc1ccc(Nc2ccc3ccccc3c2-c2c(O)ccc3ccccc23)cc1 | > 100 | 35.1 | 27.7 | 32.6 | 30.5 | 34.6 | 41.9 | 14.3 | 30.6 | 33.8
5 | O=C1NC(=O)C(C(CC(=O)c2ccc(Cl)cc2)c2ccc(Cl)cc2)C(=O)N1 (stereo not given) | > 100 | > 100 | > 100 | > 100 | > 100 | > 100 | > 100 | > 100 | > 100 | > 100
6 | CC(C)=CCNc1nc(Cl)nc2nc[nH]c12 | > 100 | > 100 | > 100 | > 100 | > 100 | > 100 | > 100 | 87.5 | > 100 | > 100
7 | C#CCn1c(=O)c(C)cn(/C(=C\C(=O)OCC)C(=O)OCC)c1=O | 23 | 33.9 | 18.4 | > 100 | 36.1 | 42.3 | 6.35 | 5.17 | > 27.6 | 35
8 | COc1cc(C2C(Cl)C(=O)N2c2c(C)n(C)n(-c3ccccc3)c2=O)ccc1O (stereo not given) | 29.7 | 37.9 | > 100 | 53.7 | 53.8 | 50 | 37.6 | 74 | 58.6 | > 100
9 | Cn1c(=O)oc2nc(-c3ccccc3)cc(C(F)(F)F)c21 | > 100 | > 100 | > 100 | > 100 | > 100 | > 100 | > 100 | 81 | > 100 | > 100
10 | O=C(Nc1ccccc1C(=O)NCc1ccccc1)/C(=C/c1ccccc1)NC(=O)c1ccccc1 | > 100 | > 100 | > 100 | > 100 | > 100 | > 100 | > 100 | > 100 | > 100 | > 100
11 | O=C(O)COc1cc(-c2ccccc2)nc2cc(F)ccc12 | > 100 | > 100 | > 100 | > 100 | > 100 | > 100 | > 100 | > 100 | > 100 | > 100
12 | O=C1OC[C@H]2[C@@H]1[C@H]1O[C@@H]2C2=C(CCC2)C1=O | > 100 | > 100 | > 100 | > 100 | > 100 | > 100 | > 100 | > 100 | > 100 | > 100
13 | CC(C)C(C/C=C1\CC(CO)(COC(=O)C2CCCCC2)OC1=O)C(C)C (stereo not given) | > 100 | 31.2 | 35.7 | > 100 | 38.3 | 33.2 | 36 | 37.5 | > 100 | 26.9
14 | O=C1c2c(O)cccc2-c2nn(CCNCCO)c3ccc(NCCNCCO)c1c23 | 0.344 | 0.454 | 5.86 | 1.13 | 0.0964 | 1.39 | 2.97 | 0.609 | 3 | 0.0707
15 | O=C1CC(=O)n2cnc3cccc(c32)N1 | > 100 | > 100 | > 100 | > 100 | > 100 | > 100 | > 100 | > 100 | > 100 | > 100
